How the values were obtained:
Format in all cases: biochemical
[1] = target: T1, Candida antarctica lipase CALB (Moesziomyces antarcticus, UniProt P41365); test: Ester synthesis activity of surfactant-treated lyophilized lipase CALB by GC analysis; details: surfactant 10 mM, protein 0.12 mg·mL^−1
T1 construct: purchased Sigma-Aldrich Co., Ltd
Protocol: (§1) (2) Determination of Ester Synthesis Activity of the Lipase by GC Analysis
(§2) Substrate solution A: 48.5 mL of n-octanoic acid is dissolved in 250 mL of n-heptane in a volumetric flask.
(§3) Substrate solution B: 17.5 mL of absolute ethanol is dissolved in 250 mL of n-heptane in a volumetric flask.
(§4) Internal standard: 2-hexanol/n-heptane (35 g·L^−1).
(§5) Standard sample: 10 g of n-octanoate is dissolved in 1000 mL of n-heptane in a volumetric flask.
(§6) 1 mL substrate solution A and substrate solution B are added in a 5 mL Eppendorf tube respectively, then 20 mg lipase powder (or lyophilized powder) is added. The reaction is carried out at 40° C. and with shaking at 150 rpm for 30 min. Remove the lipase powder by centrifugation or membrane filtration. Then 0.1 mL of internal standard is added in 0.4 mL of filtrate or supernatant and mixed. Measure the content of n-octanoate in the mixture above by GC analysis.
(§7) The gas chromatograph (6820, Agilent Instruments) is equipped with a AC20 (PEG20000) capillary column and a FID detector. Nitrogen was used as the carrier gas. The oven temperature was programmed to start at 90° C. for 1 min and then be elevated to 200° C. for 5 min at 10° C.·min^−1. The injector and detector temperatures were set at 250° C.
(§8) Definition of enzyme activity: One unit of ester synthesis activity is defined as the amount of enzyme that esterifies 1 micromole of n-octanoate per min.
(§9) Specific activity: the activity of lipase per milligram of total protein in the lipase preparation.
(§10) Total recovery: the percentage of the activity after a treatment to that before the treatment
(§11) Add an equal volume of high-concentration surfactant solution into the enzyme solution. The final protein concentration was […] and the surfactant concentration was 10 mM. After mixed thoroughly, the mixture was lyophilized and kept in dry condition.
(§12) Commercial lipase CALB was purchased from Sigma-Aldrich Co., Ltd. CALB is a non-immobilized lipase. Dissolve the CALB powder in water and centrifuge to obtain the supernatant containing the CALB lipase that would be regulated to improve the ester synthesis activity by adjusting the final protein concentration to 0.12 mg·mL^−1 and adding surfactants to the final concentration of 10 mM.
(§13) Commercial lipase CALB was purchased from Sigma-Aldrich Co., Ltd. and is a non-immobilized lipase. Dissolve the CALB powder in water, centrifuge to obtain the supernatant and treat the supernatant with different concentrations of surfactant DDM (the final protein concentration was 0.12 mg·mL^−1).

[2] = target: T2, Rhizoupus oryzae lipase ROL (Rhizopus oryzae, UniProt P61872); test: Ester synthesis activity of surfactant-treated lyophilized lipase ROL by GC analysis; details: surfactant 10 mM, protein 0.2 mg·mL^−1
T2 construct: purchased Sigma-Aldrich Co., Ltd
Protocol: as §1, §2, §3, §4, §5, §6, §7, §8, §9, §10, §11
as §12, with “lipase ROL” for “lipase CALB”, “Ltd. ROL” for “Ltd. CALB”, “the ROL” for “the CALB”, “improve its” for “improve the”, “to 0.2” for “to 0.12”
(§14) Commercial lipase ROL was purchased from Sigma-Aldrich Co., Ltd. and is a non-immobilized lipase. Dissolve the ROL powder in water, centrifuge to obtain the supernatant and treat the supernatant with different concentrations of surfactant LPC14 (the final protein concentration was 0.2 mg·mL^−1).

[3] = target: T1, Candida antarctica lipase CALB; test: Hydrolytic activity of surfactant-treated lipase CALB using pNPP as substrate; details: surfactant 10 mM, protein 0.12 mg·mL^−1
Description: (§15) (1) Determination of Hydrolytic Activity of the Lipase Using p-Nitrophenyl Palmitate (pNPP) as Substrate
(§16) Hydrolysis of pNPP catalyzed by lipase generates p-nitrophenol and palmitic acid. p-nitrophenol appears yellow in the buffer at pH 8.0 with the maximum absorption peak at 410 nm. Determination of hydrolytic activity can be achieved by measuring the absorbance at 410 nm.
(§17) The substrate solution A: 50 mmol·L^−1 sodium phosphate buffer (pH 8.0) containing 1.16 g·L^−1 sodium deoxycholate and 0.56 g·L^−1 arabic gum. Substrate solution B: 0.015 g pNPP is dissolved in 5 mL isopropyl alcohol. Substrate solution A and substrate solution B are mixed then stored for use afterwards.
(§18) Termination solution: 40 g·L^−1 NaOH, 93.05 g·L^−1 EDTA sodium. Add 62 uL termination solution to the reaction mixture when stopping the reaction.
(§19) Add 0.1 mL appropriately diluted enzyme solution, which is substituted by inactivated enzyme solution as the control, to 2.4 mL substrate solution above, incubate the mixture at 40° C. for 2 min and measure the absorbance at 410 nm.
(§20) one hydrolytic activity unit is defined as the amount of enzyme that catalyzes the formation of 1 μmol of p-nitrophenol in 1 minute at 40° C.
(§21) enzyme activity (U·mL^−1)=(V×A410×10^6)/(ε×t×V′) Calculation equation: […]
(§22) Specific activity: the activity of lipase per milligram of total protein in the lipase preparation. […]
as §12, §13

[4] = target: T3, Pseudomonas cepacia lipase PCL (Burkholderia cepacia, UniProt P22088); test: Hydrolytic activity of surfactant-treated lipase PCL using pNPP as substrate; details: surfactant 10 mM, protein 0.2 mg·mL^−1
T3 construct: purchased Sigma-Aldrich Co., Ltd
Description: as §15, §16, §17, §18, §19, §20, §21, §22
as §12, with “PCL” for “CALB”, “0.2” for “0.12”
(§23) Commercial lipase PCL was purchased from Sigma-Aldrich Co., Ltd. and is a non-immobilized lipase. Dissolve the PCL powder in water, centrifuge to obtain the supernatant and treat the supernatant with different concentrations of surfactant DDM (the final protein concentration was 0.2 mg·mL^−1).

[5] = test system: Rhizopus chinensis lipase r27RCL; test: Hydrolytic activity of surfactant-treated lipase r27RCL using pNPP as substrate; details: surfactant 10 mM, protein 0.2 mg·mL^−1
Description: as §15, §16, §17, §18, §19, §20, §21, §22
(§24) Commercial lipase r27RCL was purchased from Jiangsu Yiming Biological Technology Co., Ltd, which has high hydrolytic activity and low ester synthesis activity. Dissolve the r27RCL powder in water and centrifuge to obtain the supernatant containing the r27RCL lipase to adjust the ester synthesis activity (the final protein concentration was 0.2 mg·mL^−1 and the final concentration of surfactant was 10 mM, which is between 0.1×CMC^˜200×CMC of the different surfactants in Table 1).
(§25) Commercial lipase r27RCL was purchased from Jiangsu Yiming Biological Technology Co., Ltd. r27RCL is a lipase with high hydrolytic activity but low ester synthesis activity. Dissolve the r27RCL powder in water, centrifuge to obtain the supernatant and treat the supernatant with different concentrations of surfactant LPC14 (the final protein concentration was 0.2 mg·mL^−1).

[6] = target: T2, Rhizoupus oryzae lipase ROL; test: Hydrolytic activity of surfactant-treated lipase ROL using pNPP as substrate; details: surfactant 10 mM, protein 0.2 mg·mL^−1
Description: as §15, §16, §17, §18, §19, §20, §21, §22
as §12, with “lipase ROL” for “lipase CALB”, “Ltd. ROL” for “Ltd. CALB”, “the ROL” for “the CALB”, “improve its” for “improve the”, “to 0.2” for “to 0.12”
as §14

[7] = target: T3, Pseudomonas cepacia lipase PCL; test: Ester synthesis activity of surfactant-treated lyophilized lipase PCL by GC analysis; details: surfactant 10 mM, protein 0.2 mg·mL^−1
Protocol: as §1, §2, §3, §4, §5, §6, §7, §8, §9, §10, §11
as §12, with “PCL” for “CALB”, “0.2” for “0.12”
as §23

[8] = test system: Rhizopus chinensis lipase r27RCL; test: Ester synthesis activity of surfactant-treated lyophilized lipase r27RCL by GC analysis; details: surfactant 10 mM, protein 0.2 mg·mL^−1
Protocol: as §1, §2, §3, §4, §5, §6, §7, §8, §9, §10, §11, §24, §25

T1 sequence (P41365 26-342): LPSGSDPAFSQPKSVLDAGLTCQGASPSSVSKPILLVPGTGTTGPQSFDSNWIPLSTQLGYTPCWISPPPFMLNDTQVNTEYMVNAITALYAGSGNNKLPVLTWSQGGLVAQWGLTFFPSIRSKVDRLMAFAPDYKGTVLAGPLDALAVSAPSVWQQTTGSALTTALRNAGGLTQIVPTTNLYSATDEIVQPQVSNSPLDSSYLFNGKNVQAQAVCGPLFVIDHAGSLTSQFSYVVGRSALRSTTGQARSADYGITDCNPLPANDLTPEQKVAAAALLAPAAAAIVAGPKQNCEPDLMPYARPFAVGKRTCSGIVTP
T2 sequence (P61872 96-392): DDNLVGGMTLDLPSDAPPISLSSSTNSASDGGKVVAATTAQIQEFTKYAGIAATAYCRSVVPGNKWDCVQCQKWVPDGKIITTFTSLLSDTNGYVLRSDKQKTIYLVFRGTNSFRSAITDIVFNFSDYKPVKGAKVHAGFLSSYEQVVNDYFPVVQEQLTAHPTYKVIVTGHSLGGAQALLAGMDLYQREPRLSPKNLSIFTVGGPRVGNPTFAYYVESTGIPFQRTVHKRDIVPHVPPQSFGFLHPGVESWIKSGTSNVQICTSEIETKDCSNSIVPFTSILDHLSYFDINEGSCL
T3 sequence (P22088 45-364): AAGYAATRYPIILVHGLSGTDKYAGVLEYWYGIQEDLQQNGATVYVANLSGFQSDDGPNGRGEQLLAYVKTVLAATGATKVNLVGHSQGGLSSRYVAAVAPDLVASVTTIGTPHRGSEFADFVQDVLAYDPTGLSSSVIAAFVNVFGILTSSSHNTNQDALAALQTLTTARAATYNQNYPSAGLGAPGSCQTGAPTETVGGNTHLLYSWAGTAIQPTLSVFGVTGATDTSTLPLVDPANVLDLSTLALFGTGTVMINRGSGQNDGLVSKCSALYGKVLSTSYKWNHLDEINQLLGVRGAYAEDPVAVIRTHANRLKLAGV

`CCCCCCCCCCCCOCCOCCOCCOCCOCCOCCOCCOCCO` [C12E8, octaethylene glycol monododecyl ether] was tested, and the “Ester synthesis activity, Specific activity” value [1] was 62.8 U · mg^−1, the “Ester synthesis activity, Specific activity” value [2] was 2.6 U · mg^−1 and the “Hydrolytic activity, Specific activity” value [3] was 0 U · mg^−1. For the same compound, the “Hydrolytic activity, Total recovery” value [3] was 0%, the “Hydrolytic activity, Specific activity” value [4] was 281.1 U · mg^−1 and the “Hydrolytic activity, Total recovery” value [4] was 98%. For the same compound, the “Hydrolytic activity, Specific activity” value [5] was 117.1 U · mg^−1, the “Hydrolytic activity, Total recovery” value [5] was 101% and the “Hydrolytic activity, Specific activity” value [6] was 23.7 U · mg^−1. The “Hydrolytic activity, Total recovery” value [6] was 82%, the “Ester synthesis activity, Specific activity” value [7] was 4.6 U · mg^−1 and the “Ester synthesis activity, Total recovery” value [7] was 130%. The “Ester synthesis activity, Specific activity” value [8] was 22.2 U · mg^−1.
With `C[C@H](CCC(=O)NCCC[N+](C)(C)CCCS(=O)(=O)[O-])[C@H]1CC[C@H]2[C@@H]3[C@H](O)C[C@@H]4C[C@H](O)CC[C@]4(C)[C@H]3C[C@H](O)[C@]12C` [CHAPS, 3-[(3-Cholamidopropyl)dimethylammonio]-1-propanesulfonate] the “Ester synthesis activity, Specific activity” value [1] was 5.9 U · mg^−1, the “Ester synthesis activity, Total recovery” value [1] was 44% and the “Ester synthesis activity, Specific activity” value [2] was 2.6 U · mg^−1. For the same compound, the “Hydrolytic activity, Specific activity” value [3] was 1.6 U · mg^−1, the “Hydrolytic activity, Total recovery” value [3] was 92% and the “Hydrolytic activity, Specific activity” value [4] was 248.0 U · mg^−1. The “Hydrolytic activity, Total recovery” value [4] was 101%, the “Hydrolytic activity, Specific activity” value [5] was 132.6 U · mg^−1 and the “Hydrolytic activity, Total recovery” value [5] was 109%. The “Hydrolytic activity, Specific activity” value [6] was 23.6 U · mg^−1, the “Hydrolytic activity, Total recovery” value [6] was 81% and the “Ester synthesis activity, Specific activity” value [7] was 4.7 U · mg^−1. For the same compound, the “Ester synthesis activity, Total recovery” value [7] was 130%, the “Ester synthesis activity, Specific activity” value [8] was 13.0 U · mg^−1 and the “Ester synthesis activity, Total recovery” value [8] was 105%.

Source: patent US20190185829A1, “Preparation of lipase with improved ester synthesis activity by using surfactants” (Jiangnan University, priority 2017, published 2019)
